Results reported in publication PMC9338942, “(+)-Usnic acid and its salts, inhibitors of SARS‐CoV‐2, identified by using in silico methods and in vitro assay” (Scientific Reports, 2022).
Like-named read-outs stand apart in the source and are kept apart here.

How the values were obtained:
[1] = system: SARS-CoV-2 (βCoV/Korea/KCDC/2020); assay: microbe, parasite or virus in culture; assay type: cell-based; conditions: for IC50: vero cells, immunofluorescence; for inhibition at 10 µM: single concentration 10 μM, read-out: Inhibition of infection (%)
in vitro = conditions: African green monkey
vero cells = conditions: for Cell number to mock (%): single concentration 10 μM; for CC50: vero cells
SARS-CoV-2 pseudovirions = conditions: at 30 μM; cited from earlier work
SARS-CoV-2 = conditions: read-out: IC50, in vitro antiviral efficacy against SARS-CoV-2; cited from earlier work
COVID-19 [2] = system: COVID-19; set-up: method as in PMID 34480861; conditions: phase 3 clinical trial; cited from earlier work
COVID-19 [3] = system: COVID-19; set-up: method as in PMID 33903855; conditions: cited from earlier work
SARS-CoV = conditions: mice, 30 mg/kg; cited from earlier work
[4] = Severe acute respiratory syndrome coronavirus 2, original SARS-CoV-2 strain
[5] = Severe acute respiratory syndrome coronavirus 2
[6] = CC50, vero cells, assay with Alpha var (B.1.1.7)
[7] = CC50, vero cells, assay with Beta var (B.1.351)
[8] = CC50, vero cells, assay with Delta var (B.1.617.2)
[9] = CC50, vero cells, assay with original SARS-CoV-2 strain
[10] = assay with original SARS-CoV-2 strain
[11] = assay with Delta var (B.1.617.2)

In the case of `CC(=O)c1c(O)c(C)c(O)c2c1OC1=CC(=O)C(C(C)=O)C(=O)[C@@]12C` (single isomer, unassigned; (+)) [(+)-usnic acid], the “SI (selectivity index)” value [1] is reported as 6.26, the IC50 [1, 4] is reported as 7.99 µM and the inhibition at 10 µM [1, 5] is reported as 61.6%. For the same compound, the CC50 (in vitro; [6]) was 34.8 µM, the CC50 (in vitro; [7]) was 32.4 µM and the CC50 (in vitro; [8]) was over 50 µM. For the same compound, the CC50 (in vitro; [9]) was over 50 µM and the “Cell number to mock (%)” value (vero cells) was 94.69%.

In the case of `CCOC(=O)[C@H]1O[C@@H]1C(=O)N[C@@H](CC(C)C)C(=O)NCCC(C)C` [Aloxistatin], the “reduction of cell entry of SARS-CoV-2 pseudovirions” value (SARS-CoV-2 pseudovirions) is listed as 92.5%.

For `Cc1ccc(N)cc1C(=O)N[C@H](C)c1cccc2ccccc12` [GRL0617], the IC50 (SARS-CoV-2) is given as 2.1 µM.

Work on `CC(=O)C1=C(O)[C@]2(C)C(=CC1=O)Oc1c(C(C)=O)c(O)c(C)c(O)c12` [KU, potassium usnate] yielded an IC50 ([1]; original SARS-CoV-2 strain) of 7.57 µM and a CC50 (vero cells; [10]) of over 50 µM.

In the case of `COC1=CC(=O)[C@@]2(C)c3c(O)c(C)c(O)c(C(C)=O)c3O[C@@]2(OC)C1` [Mycousfuran A, (4aS,9bR)-6-acetyl-7,9-dihydroxy-3,4a-dimethoxy-8,9b-dimethyl-4H-dibenzofuran-1-one], the inhibition at 10 µM [1, 5] is reported as 0.96% and the “Cell number to mock (%)” value (vero cells) is reported as 109.23%.

Work on `CC(=O)C1=C(O)C=C2Oc3c(C(C)=O)c(O)c(C)c(O)c3[C@]2(C)C1=O` [NaU, sodium usnate] yielded an IC50 ([1]; original SARS-CoV-2 strain) of 5.33 µM and a CC50 (vero cells; [10]) of over 50 µM.

In the case of `C[C@]12C[C@@]34C=CC(=O)[C@@](C)(CCC(=O)Nc5c(O)ccc(C(=O)O)c5O)[C@@H]3[C@H](C[C@@H]1C4)O2` [Platensimycin, 3-[[3-[(1S,3S,4S,5aS,9S,9aR)-1,4,5,8,9,9a-Hexahydro-3,9-dimethyl-8-oxo-3H-1,4:3,5a-dimethano-2-benzoxepin-9-yl]-1-oxopropyl]amino]-2,4-dihydroxybenzoic acid], the inhibition at 10 µM [1, 5] is reported as 3.16% and the “Cell number to mock (%)” value (vero cells) is reported as 109.23%.

In the case of `CO[C@H]1[C@H](O)[C@@H](O)[C@H](n2c3c(Cl)cccc3c3c4c(c5c6cccc(Cl)c6[nH]c5c32)C(=O)NC4=O)O[C@@H]1CO` [Rebeccamycin, 1,11-Dichloro-12,13-dihydro-12-(4-O-methyl-β-D-glucopyranosyl)-5H-indolo[2,3-a]pyrrolo[3,4-c]carbazole-5,7(6H)-dione], the inhibition at 10 µM [1, 5] is reported as 10.6% and the “Cell number to mock (%)” value (vero cells) is reported as 72.32%.

In the case of `CCS(=O)(=O)N1CC(CC#N)(n2cc(-c3ncnc4[nH]ccc34)cn2)C1` [barcitinib, Barcitinib], the “reduction of 28-day mortality rate compared to placebo” value (COVID-19 [2]) is listed as 38.2%.

In the case of `CN(C)C(=O)COC(=O)Cc1ccc(OC(=O)c2ccc(NC(=N)N)cc2)cc1` [camostat mesilate], the “efficacy in clinical trials for the treatment of COVID-19” value (COVID-19 [3]) is given as “did not show any particular efficacy” and the survival level (SARS-CoV) is given as “above 60%”.

In the case of `CCN(CC)CCCC(C)Nc1ccnc2cc(Cl)ccc12` (centres unmarked) [chloroquine], the IC50 [1, 4] is reported as 11.5 µM, the CC50 (in vitro) is reported as over 150 µM and the CC50 (vero cells; assay with Beta var (B.1.351)) is reported as over 150 µM. The CC50 (vero cells; [11]) was over 150 µM.

For `Cc1cccc(C)c1OCC(=O)N[C@@H](Cc1ccccc1)[C@@H](O)C[C@H](Cc1ccccc1)NC(=O)[C@H](C(C)C)N1CCCNC1=O` [lopinavir], the “SI (selectivity index)” value [1] was 4.24, the IC50 [1, 4] was 11.8 µM and the CC50 (in vitro; [6]) was over 50 µM. For the same compound, the CC50 (in vitro; [7]) was over 50 µM, the CC50 (in vitro; [8]) was over 50 µM and the CC50 (in vitro; [9]) was over 150 µM.

For `CCC(CC)COC(=O)[C@H](C)N[P@](=O)(OC[C@H]1O[C@@](C#N)(c2ccc3c(N)ncnn23)[C@H](O)[C@@H]1O)Oc1ccccc1` [remdesivir], the IC50 [1, 4] was 7.42 µM, the “SI (selectivity index)” value ([1]; original SARS-CoV-2 strain) was 6.74 and the CC50 (in vitro) was over 50 µM. The CC50 (vero cells; assay with Beta var (B.1.351)) was over 50 µM and the CC50 (vero cells; [11]) was over 50 µM.
